Source: patent US20080234132A1, “Microcin B17 Analogs And Methods For Their Preparation And Use” (priority 2004, published 2008)
pIC50: −log10 of the molar value. In brackets after ≈: the same amount, converted by molar mass. Read-outs that look alike come from different tables or passages of the source. *1 amine or outer side, *2 acyl side, *3 side chain or, on linkers, in order; H or OH if unused. Where a SMILES comes first, the peptide text is derived from it. [ ]: non-standard residue; d: D form. GlyΨ(Thz) = O=C(c1csc(CN[*:1])n1)[*:2]; X1 = O=C(c1ccc(CN[*:1])[nH]1)[*:2]; X3 = O=C(c1coc(CN[*:1])n1)[*:2]

Experiments:
Human topoisomerase I = target: T1, Human topoisomerase I (Homo sapiens, UniProt P11387); test: Human topoisomerase I-mediated relaxation assay; format: biochemical
T1 construct: purchased TopoGEN Inc. (Port Orange, Fla., USA)
T1 sequence (P11387 1-765): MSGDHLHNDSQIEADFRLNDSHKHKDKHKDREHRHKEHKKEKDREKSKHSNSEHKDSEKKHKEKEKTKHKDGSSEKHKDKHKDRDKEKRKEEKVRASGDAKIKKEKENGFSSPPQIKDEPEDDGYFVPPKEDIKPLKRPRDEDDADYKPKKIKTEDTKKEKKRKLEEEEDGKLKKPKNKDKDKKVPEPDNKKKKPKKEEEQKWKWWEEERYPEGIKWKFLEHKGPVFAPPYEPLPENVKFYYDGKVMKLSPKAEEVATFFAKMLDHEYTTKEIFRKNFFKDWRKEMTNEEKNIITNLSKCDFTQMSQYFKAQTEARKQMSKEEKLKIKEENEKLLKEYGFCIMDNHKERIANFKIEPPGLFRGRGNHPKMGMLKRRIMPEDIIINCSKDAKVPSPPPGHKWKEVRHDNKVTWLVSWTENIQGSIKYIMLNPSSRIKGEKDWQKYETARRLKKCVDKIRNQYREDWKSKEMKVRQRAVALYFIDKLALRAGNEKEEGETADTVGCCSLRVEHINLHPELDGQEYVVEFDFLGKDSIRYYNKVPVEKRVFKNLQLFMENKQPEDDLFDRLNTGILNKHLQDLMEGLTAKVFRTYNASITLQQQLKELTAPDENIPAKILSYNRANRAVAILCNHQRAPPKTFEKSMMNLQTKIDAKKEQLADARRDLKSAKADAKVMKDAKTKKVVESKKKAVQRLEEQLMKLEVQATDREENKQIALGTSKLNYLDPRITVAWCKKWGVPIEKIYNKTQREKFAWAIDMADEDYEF
Method: Human topoisomerase I-mediated relaxation assays were performed as per the manufacturer's instructions. Topoisomerase I (2 nM) was added to reactions containing 10 mM of Tris.HCl, pH 7.9, 150 mM NaCl, 100 μM spermidine.HCl, 5% glycerol, 0.1% BSA, 4.6 nM of […] pBR322 DNA, and inhibitor where appropriate.
(§1) All in vitro reactions were incubated at 37° C. for 30 minutes. The DMSO concentration in each reaction was kept constant at 3.33%. Reactions were quenched with the addition of an equal volume of phenol/chloroform/isoamyl alcohol (25:24:1) and one tenth volume of loading buffer containing 40% sucrose, 100 mM Tris.HCl pH 7.5, 100 mM EDTA, 2 mg/mL bromophenol blue. The proteins were precipitated by vortexing, followed by centrifugation for 5 minutes at 16 000 g. The aqueous phase was loaded onto 1% agarose gels in Tris-acetate and were electrophoresed at 60 V for three hours in Tris-acetate buffer. The gels were stained in 1 μg/mL ethidium bromide. The gels were visualised using UV light and were documented and analysed using Syngene software.

E. coli Topoisomerase IV [1] = target: T2, E. coli Topoisomerase IV (Escherichia coli, UniProt P0AFI2+P20083); test: biochemical; format: biochemical; design: purchased John Innes Enterprises (Norwich, UK)
T2 sequence (P20083 whole entry): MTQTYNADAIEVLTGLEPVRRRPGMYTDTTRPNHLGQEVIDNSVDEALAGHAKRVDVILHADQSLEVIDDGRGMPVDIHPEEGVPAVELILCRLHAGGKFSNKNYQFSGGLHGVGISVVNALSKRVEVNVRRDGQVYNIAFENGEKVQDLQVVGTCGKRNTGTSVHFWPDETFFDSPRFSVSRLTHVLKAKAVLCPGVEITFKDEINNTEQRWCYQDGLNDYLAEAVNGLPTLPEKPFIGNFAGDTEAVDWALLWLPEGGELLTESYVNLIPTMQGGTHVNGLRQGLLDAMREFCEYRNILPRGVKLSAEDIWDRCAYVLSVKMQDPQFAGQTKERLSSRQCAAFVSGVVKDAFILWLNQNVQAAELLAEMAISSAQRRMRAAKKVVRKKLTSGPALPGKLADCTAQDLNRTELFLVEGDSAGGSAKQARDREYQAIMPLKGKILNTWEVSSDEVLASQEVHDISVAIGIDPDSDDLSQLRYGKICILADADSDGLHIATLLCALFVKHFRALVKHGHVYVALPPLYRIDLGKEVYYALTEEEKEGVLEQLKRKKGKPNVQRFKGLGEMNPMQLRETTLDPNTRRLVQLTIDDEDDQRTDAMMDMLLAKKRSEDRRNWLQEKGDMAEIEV
T2 sequence (P0AFI2 whole entry): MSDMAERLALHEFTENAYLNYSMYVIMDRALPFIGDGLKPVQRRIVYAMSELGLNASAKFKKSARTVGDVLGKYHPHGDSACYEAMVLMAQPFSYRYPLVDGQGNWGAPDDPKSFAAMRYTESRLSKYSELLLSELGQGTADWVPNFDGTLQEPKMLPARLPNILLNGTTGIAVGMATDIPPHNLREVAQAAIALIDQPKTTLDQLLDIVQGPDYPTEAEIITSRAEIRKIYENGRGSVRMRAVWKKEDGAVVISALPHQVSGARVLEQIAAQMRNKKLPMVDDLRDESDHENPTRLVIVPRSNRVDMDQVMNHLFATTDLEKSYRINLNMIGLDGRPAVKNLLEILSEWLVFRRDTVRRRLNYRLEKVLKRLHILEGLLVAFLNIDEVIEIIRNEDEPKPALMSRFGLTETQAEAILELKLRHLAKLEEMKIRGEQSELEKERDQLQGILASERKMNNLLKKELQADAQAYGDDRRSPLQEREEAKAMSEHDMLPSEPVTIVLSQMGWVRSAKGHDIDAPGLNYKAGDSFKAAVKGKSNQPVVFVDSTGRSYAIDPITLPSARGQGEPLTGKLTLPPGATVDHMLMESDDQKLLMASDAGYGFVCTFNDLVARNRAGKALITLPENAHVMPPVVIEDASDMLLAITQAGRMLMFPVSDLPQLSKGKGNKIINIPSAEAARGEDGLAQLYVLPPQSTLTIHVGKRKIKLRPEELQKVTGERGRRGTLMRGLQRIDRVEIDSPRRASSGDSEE
Method: (§5) Topoisomerase IV-mediated relaxation assays and decatenation assays were performed as previously described (see Peng and Marians, 1993). […] Decatenation assays contained topoisomerase IV (4 nM), 40 mM Tris HCl pH 7.5 at 30° C., 6 mM MgCl2, 10 mM DTT, 1 mM spermidine.HCl, 100 mM potassium glutamate, 0.5 mM ATP, 0.5 mg/mL BSA, 200 ng of kinetoplast DNA, and inhibitor where appropriate.

Human topoisomerase IIα [2] = target: T3, Human topoisomerase IIα (Homo sapiens, UniProt P11388); test: Human Topoisomerase IIα-mediated relaxation assay; format: biochemical; design: purchased TopoGEN Inc. (Port Orange, Fla., USA)
T3 sequence (P11388 whole entry): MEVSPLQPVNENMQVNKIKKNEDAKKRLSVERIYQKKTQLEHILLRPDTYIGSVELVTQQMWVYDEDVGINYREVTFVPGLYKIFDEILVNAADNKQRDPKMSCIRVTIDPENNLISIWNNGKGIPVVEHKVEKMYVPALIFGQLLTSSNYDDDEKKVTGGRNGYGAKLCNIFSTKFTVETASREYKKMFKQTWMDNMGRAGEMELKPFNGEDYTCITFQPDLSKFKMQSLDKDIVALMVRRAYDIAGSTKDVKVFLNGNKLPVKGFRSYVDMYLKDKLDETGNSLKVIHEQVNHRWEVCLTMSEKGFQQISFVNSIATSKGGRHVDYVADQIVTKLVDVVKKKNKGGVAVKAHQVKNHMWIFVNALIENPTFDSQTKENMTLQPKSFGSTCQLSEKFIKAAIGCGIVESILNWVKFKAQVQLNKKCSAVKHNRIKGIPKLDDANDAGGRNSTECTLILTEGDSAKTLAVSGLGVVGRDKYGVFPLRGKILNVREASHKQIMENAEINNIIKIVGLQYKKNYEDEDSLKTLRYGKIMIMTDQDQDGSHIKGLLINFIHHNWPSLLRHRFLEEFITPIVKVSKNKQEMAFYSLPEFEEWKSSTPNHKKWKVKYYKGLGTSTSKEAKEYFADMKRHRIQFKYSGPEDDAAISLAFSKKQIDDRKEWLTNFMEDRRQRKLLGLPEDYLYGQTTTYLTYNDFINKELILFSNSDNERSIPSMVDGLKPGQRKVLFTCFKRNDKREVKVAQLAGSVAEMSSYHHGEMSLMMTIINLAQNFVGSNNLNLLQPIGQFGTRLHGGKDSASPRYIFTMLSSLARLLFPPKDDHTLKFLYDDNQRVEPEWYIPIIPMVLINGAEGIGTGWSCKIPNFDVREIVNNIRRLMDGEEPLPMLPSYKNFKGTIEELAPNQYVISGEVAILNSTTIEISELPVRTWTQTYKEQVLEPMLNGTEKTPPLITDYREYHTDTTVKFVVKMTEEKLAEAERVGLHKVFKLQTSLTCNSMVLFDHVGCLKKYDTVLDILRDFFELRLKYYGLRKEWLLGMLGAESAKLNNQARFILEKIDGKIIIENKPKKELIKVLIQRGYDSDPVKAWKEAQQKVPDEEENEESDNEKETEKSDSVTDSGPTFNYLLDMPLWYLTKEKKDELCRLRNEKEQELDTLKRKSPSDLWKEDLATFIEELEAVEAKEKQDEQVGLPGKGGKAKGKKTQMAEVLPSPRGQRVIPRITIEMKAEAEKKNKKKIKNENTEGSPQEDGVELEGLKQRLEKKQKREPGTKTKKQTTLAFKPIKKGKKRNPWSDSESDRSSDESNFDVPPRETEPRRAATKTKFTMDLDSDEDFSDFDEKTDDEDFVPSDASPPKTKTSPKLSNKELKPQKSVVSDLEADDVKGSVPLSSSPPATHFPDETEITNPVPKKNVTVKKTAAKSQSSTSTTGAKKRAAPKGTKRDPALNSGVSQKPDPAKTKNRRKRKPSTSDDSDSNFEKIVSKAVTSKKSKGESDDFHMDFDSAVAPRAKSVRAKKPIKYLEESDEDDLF
Method: (§2) Human Topoisomerase IIα-mediated relaxation assays and decatenation assays were performed as per the manufacturer's instructions in a total of 20 μL. Relaxation assays contained Topoisomerase IIα (4.3 nM), 50 mM Tris.HCl pH 8,120 mM KCl, 10 mM MgCl2, 0.5 mM DTT, 0.5 mM ATP, 4.6 nM of supercoiled pBR322 DNA, and inhibitor where appropriate. Decatenation assays substituted the supercoiled DNA with 200 ng catenated kinetoplast DNA.
as §1

Human topoisomerase IIα [3] = target: T3, Human topoisomerase IIα; test: Human Topoisomerase IIα decatenation assay; format: biochemical; design: purchased TopoGEN Inc. (Port Orange, Fla., USA)
Method: as §2, §1

DNA gyrase A2B2 = DNA gyrase A2B2 (Escherichia coli, UniProt P0AES4+P0AES6); test: biochemical; format: biochemical, E. coli
Method: Relaxation assays were performed in a manner analogous to that described by Pierrat et al., 2005. Briefly, relaxation assays were performed as for the supercoiling assay but with some modifications: ATP and spermidine were omitted. Gyr A and Gyr B were added to a solutions containing 35 mM of Tris.HCl (pH=7.5), 24 mM of KCl, 4 mM of MgCl2, 1.8 mg/mL of spermidine, 6.5% of glycerol, 0.36 mg/mL of BSA, 9 μg/mL of tRNA, 5 mM of DTT, 2 mM of ATP and 24 nM of relaxed pBR322 DNA. […] The amount of DMSO was kept constant at 3.33%. The reactions were incubated at 25° C., and at each time point 30 μL aliquots were quenched with the addition of an equal volume of chloroform/isoamyl alcohol (24:1) and a half volume of loading buffer STEB (40% sucrose/100 mM Tris HCl, pH 7.5/100 mM EDTA/2 mg/mL bromophenol blue). The mixtures then were vortexed and centrifuged for 1 minute at 13,000 rpm. The aqueous phase was loaded onto 1% agarose, TAE (40 mM Tris-acetate, 1 mM EDTA) gels and were run at either 30 V overnight in TAE (in the cold room) or 70 V for 2.5 hours in TAE. The gels were stained for about 20 minutes in TAE containing 1 μg/mL ethidium bromide followed by destaining in multiple washes of TAE. The data were analysed using Syngel software.

DNA gyrase [4] = target: T4, DNA gyrase (Escherichia coli, UniProt P0AES4+P0AES6); test: biochemical; design: species or system E. coli; settings: for IC50 SC gyrase: Table 5-C
HeLa cells = test: cells; format: cell-based, human; settings: MTT, 24 hours; read-out: In vivo HeLa Cells (approximate IC50)
Method: (§3) Human cell cultures were initiated from frozen cell stocks (the gift of Dr J. Gavrilovic, UEA). The HT-29 line is derived from a colorectal adenocarcinoma while HeLa cells are derived from a cervical epithelial adenocarcinoma (see FIG. 35). Both human cell lines form adherent cultures and were maintained at 37° C. in T25 culture vessels as 10 mL cultures in CO2 Independent Media containing 10% foetal bovine serum (EU approved), 4 mM L-glutamine, penicillin/streptomycin (Invitrogen). A subcultivation ratio of 1:3 and 1:6 were maintained for HT-29 and HeLa lines respectively. Media was renewed every three days.
(§4) The assay to determine the effects of the heterocyclic compounds on mammalian cells is based on the cleavage of the yellow tetrazolium salt MTT to purple formazoan crystals by metabolically active cells (Roche). After incubation with MTT and solubilization, the resulting coloured solution is quantified using a scanning spectrophotometer. Each of the cell lines was trypsinised and resuspended in fresh media prior to transfer to sterile flat-bottomed microtitre plates (200 μL per well) and allowed to recover for 16 hours. Five thousand HT-29 or 7500 HeLa cells per 100 μL culture medium were incubated in the presence of the drugs in various concentrations (totalling 10 μL) for 24 hours. Cell viability was then determined by addition of MTT reagent (20 μL) in each well, as per manufacturer's instructions and incubated for a further 4 hours. Solubilization solution (100 μL) was added per well and the plates incubated overnight at 37° C. The plates were read in a spectrophotometer (scanning from 500-650 nm, signal peak at 570 nm). A representative result is illustrated in FIG. 36.

HT-29 cells = test: cells; format: cell-based, human; settings: MTT, 24 hours; read-out: In vivo HT29 Cells (approximate IC50)
Method: as §3, §4

DNA gyrase [5] = target: T4, DNA gyrase; format: biochemical, E. coli; settings: for IC50 cleavage: Table 5-C; for Cleavage (IC50 μM): Table 4
Method: GyrA and GyrB were added to solutions containing 35 mM Tris.HCl (pH, 7.5), 24 mM KCl, 4 mM MgCl2, 1.8 mM spermidine, 6.5% glycerol, 0.36 mg/mL BSA, 9 μg/mL tRNA, 5 mM DTT, 2 mM ATP and 10 nM relaxed pBR322 DNA. […] The reactions were incubated at 25° C., and at each time point 30-μl aliquots were quenched with 1 μL of 10% SDS and 2 μL of 2 mg/ml proteinase K. Quenched aliquots were kept on ice until the experiment was completed, at which time they were incubated at 37° C. for half an hour. An equal volume of chloroform/isoamyl alcohol (24:1) and a half volume of loading buffer STEB (40% sucrose/100 mM Tris HCl, pH 7.5/1 mM EDTA/2 mg/ml bromophenol blue) were added, and the mixtures then were vortexed and centrifuged for 1 min at 13,000 rpm. The aqueous phase was loaded onto 1% agarose, TAE (40 mM Tris-acetate, 1 mM EDTA) gels that contained 1 μg/ml ethidium bromide and were run at either 30 V overnight in TAE containing 1 μg/ml ethidium bromide (in the cold room) or 70 V for 2.5 hours in TAE containing 1 μg/ml ethidium bromide.

E. coli Topoisomerase IV [6] = target: T2, E. coli Topoisomerase IV; test: biochemical; design: purchased John Innes Enterprises (Norwich, UK)
Method: as §5

[7] = target: DNA gyrase MG1655 wild type A2B2 (Escherichia coli, UniProt P0AES4+P0AES6); test: biochemical; design: species or system E. coli; settings: for ATPase % inhibition at saturation: Table 4
Method: ATP hydrolysis by DNA gyrase was linked to the oxidation of NADH using a pyruvate Kinase (PK)/lactate dehydrogenase (LDH) coupled enzyme assay and measured at 340 nm on a Spectramax Plus Microplate. […] Each 100 μL reaction contained 50 mM Tris.HCl (pH 7.5), 24 mM KCl, 5 mM MgCl2, 6.5% (w/w) glycerol, 4 mM dithiotreitol, 0.4 mM NADH, 0.8 mM phosphorenol-pyruvate, 1% (w/w) PK/LDH mixture (Sigma), 51 nM-153 nM gyrase enzyme and the drug tested at varying concentrations. DMSO was kept constant at 2%. The reactions were measured in the presence or absence of linear DNA pBR322 at fixed concentration of 8.4 nM. Reactions were initiated by the addition of 10 mM Mg.ATP and measured at 25° C. over 1.5 hours.
DNA-dependent ATPase reactions were tested with the wild type enzyme A2B2 and the W751R mutant enzyme. In these DNA-dependent ATPase assays, the concentration of wild type A2B2 is 51 nM, the concentration of W751R mutant enzyme is 106 nM.
Experimental data were fitted and treated with the following equation:
where L represents the inhibitor concentration, v represents the rate of the ATPase reaction, and v0 represents the rate in absence of inhibitor. The IC50 is deduced from the equation 2:

[8] = target: DNA gyrase (MG 1655 A2B2) (Escherichia coli, UniProt P0AES4+P0AES6); test: biochemical; design: species or system E. coli; settings: for IC50: Supercoiling (IC50 μM) MG 1655 A2B2, Table 4
Method: (§6) GyrA and GyrB were added to a solution containing 35 mM Tris.HCl (pH, 7.5), 24 mM KCl, 4 mM MgCl2, 1.8 mM spermidine, 6.5% glycerol, 0.36 mg/mL BSA, 9 μg/mL tRNA, 5 mM DTT, 2 mM ATP and 24 nM relaxed pBR322 DNA. […] The reactions were incubated at 25° C., and at each time point 30-μl aliquots were quenched with 1 μL of 10% SDS. An equal volume of chloroform/isoamyl alcohol (24:1) and a half volume of loading buffer STEB (40% sucrose/100 mM Tris.HCl, pH 7.5/100 mM EDTA/2 mg/ml bromophenol blue) were added, and the mixtures then were vortexed and centrifuged for 1 min at 13,000 rpm. The aqueous phase was loaded onto 1% agarose, TAE (40 mM Tris-acetate, 1 mM EDTA) gels and were run at either 30 V overnight in TAE (in the cold room) or 70 V for 2.5 hours. The gels were stained for about 20 min in TAE containing 1 μg/ml ethidium bromide followed by destaining in multiple washes of TAE.

[9] = target: Wheatgerm topoisomerase I (Triticum aestivum, UniProt A0A3B6RK19); test: Wheatgerm topoisomerase I-mediated relaxation assay; format: biochemical
Chain of Wheatgerm topoisomerase I (A0A3B6RK19 entry or part of it): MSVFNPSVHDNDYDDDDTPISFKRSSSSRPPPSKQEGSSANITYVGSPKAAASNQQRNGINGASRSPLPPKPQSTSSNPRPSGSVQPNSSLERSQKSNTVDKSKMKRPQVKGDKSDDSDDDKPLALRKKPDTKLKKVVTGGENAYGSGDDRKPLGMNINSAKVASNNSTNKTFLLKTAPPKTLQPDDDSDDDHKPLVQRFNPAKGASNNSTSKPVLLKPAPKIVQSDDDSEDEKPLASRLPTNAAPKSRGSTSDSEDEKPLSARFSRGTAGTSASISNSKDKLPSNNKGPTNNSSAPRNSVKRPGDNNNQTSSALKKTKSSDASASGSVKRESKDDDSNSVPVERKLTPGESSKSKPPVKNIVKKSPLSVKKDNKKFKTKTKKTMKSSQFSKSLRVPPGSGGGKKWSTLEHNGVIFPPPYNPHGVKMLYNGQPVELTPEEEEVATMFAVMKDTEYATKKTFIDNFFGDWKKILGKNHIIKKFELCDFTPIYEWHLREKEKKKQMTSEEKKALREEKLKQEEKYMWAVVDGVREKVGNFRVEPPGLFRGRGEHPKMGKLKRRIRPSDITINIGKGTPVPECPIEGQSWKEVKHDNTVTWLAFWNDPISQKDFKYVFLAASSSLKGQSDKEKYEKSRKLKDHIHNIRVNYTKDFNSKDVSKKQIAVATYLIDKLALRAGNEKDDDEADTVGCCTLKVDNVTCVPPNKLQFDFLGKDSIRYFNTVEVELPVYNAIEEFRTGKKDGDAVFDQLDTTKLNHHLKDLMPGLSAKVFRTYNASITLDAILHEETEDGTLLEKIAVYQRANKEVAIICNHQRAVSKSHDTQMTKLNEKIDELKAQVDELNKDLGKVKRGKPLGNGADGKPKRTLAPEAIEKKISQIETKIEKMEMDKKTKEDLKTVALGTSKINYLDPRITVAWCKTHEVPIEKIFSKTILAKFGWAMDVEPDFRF
Method: Wheatgerm topoisomerase I-mediated relaxation assays were performed as per the manufacturer's instructions. Topoisomerase I (2 nM) was added to reactions containing 50 mM Tris. HCl pH 7.5, 50 mM NaCl, 0.1 mM EDTA, 1 mM DTT, 20% glycerol, 4.6 nM of […] pBR322 DNA, and inhibitor where appropriate.
as §1

DNA gyrase W751R A2B2 = DNA gyrase W751R A2B2 (Escherichia coli, UniProt P0AES4+P0AES6, W751R); test: Supercoiling in vitro assay, W751R mutant enzyme; format: biochemical, E. coli
Method: as §6

[10] = target: DNA gyrase W751R mutant A2B2 (Escherichia coli, UniProt P0AES4+P0AES6, W751R); format: biochemical, E. coli
Method: ATP hydrolysis by DNA gyrase was linked to the oxidation of NADH using a pyruvate Kinase (PK)/lactate dehydrogenase (LDH) coupled enzyme assay and measured at 340 nm on a Spectramax Plus Microplate. […] DMSO was kept constant at 2%.
DNA-dependent ATPase reactions were tested with the wild type enzyme A2B2 and the W751R mutant enzyme.

[11] = test system: A. thaliana ecotype Columbia seeds; test: Seed germination of A. thaliana; format: in vivo, Arabidopsis thaliana; settings: 36 hours; 100 μM Peptide 1; 5 μM CFX
Method: The microcin derivatives were tested for efficacy in planta against Arabidopsis thaliana ecotype Columbia according to known methods (see Wall et al., 2004).

[12] = Topo IIα Human, R (relaxation reaction) IC50

Method for pBR322 DNA: Other compounds like Ethidium Bromide (EtBr), MccB17 and Ciprofloxacin (CFX) were also tested as controls. In this assay, negatively supercoiled pBR322 was relaxed by topoisomerase I in the presence or the absence of the putative DNA intercalative compound. […] Sample reactions were performed in the same buffer used for the DNA relaxation of DNA gyrase (Pierrat & Maxwell, 2003). […] In one set of reactions, negatively supercoiled pBR322 DNA was relaxed at 37° C. for 30 minutes, then intercalative agent was added, i.e., the substrate of the assay was relaxed. In a second set of reactions, the intercalative agent was incubated with the DNA in reaction buffer at 37° C. for 15 minutes prior to the addition of topoisomerase I, i.e., the substrate of the assay was negatively supercoiled. […] Samples were incubated for 60 minutes at 37° C., followed by treatment with 1% SDS and 0.3 mg/mL proteinase K at 37° C. for 30 minutes. Reactions were terminated and samples were prepared for agarose gel electrophoresis as previously described (Heddle et al., 2001). Each reaction product was separated on 1% agarose gel, followed by staining in 1 μg/mL ethidium bromide.

Row | SMILES | Topo I Human IC50 (Human topoisomerase I) | Topo IV, D (decatenation reaction) IC50 (E. coli Topoisomerase IV [1]) | Topo IIα Human, D (decatenation reaction) IC50 (Human topoisomerase IIα [3]) | pIC50 (Human topoisomerase I) | pIC50 (DNA gyrase A2B2) | pIC50 (DNA gyrase [4]) | pIC50 (HeLa cells) | pIC50 (HT-29 cells) | pIC50 (Human topoisomerase IIα [2]; [12]) | pIC50 (Human topoisomerase IIα [3]) | pIC50 (E. coli Topoisomerase IV [6]) | Cleavage (IC50 μM) (DNA gyrase [5]) | further results
1 | CC(C)(C)OC(=O)NCc1nc(C(=O)O)cs1 [#5] | only inhibited human topoisomerase I | exquisitely sensitive | exquisitely sensitive | – | – | – | – | – | – | – | – | – | pIC50 (Human topoisomerase IIα [2]; read-out: Topo IIα Human, R (relaxation reaction) IC50): > 4.70
2 | C[C@H](NC(=O)CNC(=O)CNC(=O)c1csc(CNC(=O)[C@H](C)NC(=O)CNC(=O)[C@@H](N)CCC(N)=O)n1)C(=O)O [Peptide 5] (H-QGA[GlyΨ(Thz)]GGA-OH) | – | – | – | 4.60 | 4.40 | 4.60 | ~4.12 | ~4.82 | 5.15 | > 5.60 | – | – | IC50 cleavage (DNA gyrase [5]): No
3 | C[C@H](NC(=O)CNC(=O)CNC(=O)c1coc(CNC(=O)[C@H](C)NC(=O)CNC(=O)[C@@H](N)CCC(N)=O)n1)C(=O)O [Peptide 4] (H-QGA[X3]GGA-OH) | – | – | – | < 3.52 | – | 3.40 | < 4.12 | < 4.12 | 3.65 | > 4.30 | < 3.52 | – | pIC50 (E. coli Topoisomerase IV [1]): 3.76; IC50 cleavage (DNA gyrase [5]): No
4 | CC(NC(=O)CNC(=O)CNC(=O)c1csc(CNC(=O)C(C)NC(=O)CNC(=O)C(N)CCC(N)=O)n1)C(=O)O (stereo not drawn) [Peptide 5] (H-QGA[GlyΨ(Thz)]GGA-OH; configuration not given here) | inhibited | exquisitely sensitive | exquisitely sensitive | – | 4.82 | – | – | – | > 4.70 | – | > 5.00 | inactive | pIC50 [7]: 4.82; ATPase % inhibition at saturation [7]: 40%; IC50 [8]: 15 µM; Topo I Wheatgerm IC50 [9]: inhibited
5 | CC(C)(C)OC(=O)NCc1nc(C(=O)O)cs1 [Peptide 5] | – | – | – | 4.40 | – | 4.12 | ~4.12 | ~4.82 | 4.82 | > 5.30 | < 4.12 | – | pIC50 (E. coli Topoisomerase IV [1]): 4.70
6 | CC(NC(=O)CNC(=O)CNC(=O)c1ccc(CNC(=O)C(C)NC(=O)CNC(=O)C(N)CCC(N)=O)[nH]1)C(=O)O (stereo not drawn) [Peptide 1] (H-QGA[X1]GGA-OH; configuration not given here) | inhibited | exquisitely sensitive | exquisitely sensitive | – | 4.17 | – | – | – | > 4.70 | – | > 5.00 | inactive | pIC50 [7]: 4.43; ATPase % inhibition at saturation [7]: 15%; IC50 [8]: 68 µM; pIC50 ([8]; inhibition of supercoiling IC50, [A2B2] 13.2 nM, incubated up to 4 h): > 4.12; Topo I Wheatgerm IC50 [9]: inhibited; times more soluble than MccB17 (Solubility): at least 20 times; solubility (Solubility; water with 2% DMSO): 1000 µM (≈ 582 µg/mL); pIC50 (DNA gyrase W751R A2B2): < 3.70
7 | O=C(O)c1cn(C2CC2)c2cc(N3CCNCC3)c(F)cc2c1=O [Ciprofloxacin, reference compound] | – | – | – | – | – | – | – | – | – | – | – | – | inhibition of DNA-dependent ATPase of wild type enzyme ([7]; FIG. 18, 0.5 and 1.0 μM): slow down; inhibition of DNA-independent ATPase of wild type enzyme ([7]; FIG. 18, no DNA): does not inhibit; inhibition of DNA-independent ATPase of W751R mutant enzyme ([10]; FIG. 18, no DNA): does not inhibit; inhibition of DNA-dependent ATPase of W751R mutant A2B2 ([10]; W751R enzyme 106 nM, + DNA): slow down; germination of A. thaliana ecotype Columbia seeds [11]: growth is inhibited immediately after germination; concentration producing a weak intercalative property (pBR322 DNA): 50 µM
8 | CC(C)(C)OC(=O)NCc1nc(-c2nc(C(=O)O)co2)cs1 [#8] | – | – | – | – | – | – | – | – | – | – | – | – | IC50 SC gyrase (DNA gyrase [4]): Inactive
9 | CC(NC(=O)CNC(=O)CNC(=O)c1coc(CNC(=O)C(C)NC(=O)CNC(=O)C(N)CCC(N)=O)n1)C(=O)O (stereo not drawn) [Peptide 4] (H-QGA[X3]GGA-OH; configuration not given here) | – | – | – | – | – | – | – | – | 3.65 | – | – | inactive | Supercoiling (IC50 μM) MG 1655 A2B2 ([8]; Table 4): Slow
10 | CC(C)(C)OC(=O)NCc1nc(-c2nc(C(=O)O)cs2)co1 [#7] | – | – | – | – | – | – | – | – | – | – | – | – | IC50 SC gyrase (DNA gyrase [4]): Inactive
